# Key:
# [1] = test system: murine model of sclerodermatous cGVHD; test: Murine model of sclerodermatous cGVHD: clinical GVHD score and symptoms; format: in vivo, mouse (BALB/c recipients, B10.D2 donors)
# Method: (§1) A murine model of sclerodermatous cGVHD was initiated by adoptive transfer of T-cell depleted bone marrow plus whole splenocytes from B10.D2 donors into BALB/c recipients that were previously subjected to sub-lethal irradiation. Total bone marrow and irradiation only groups were included as controls. […] Body weight and clinical symptoms (appearance, activity, skin symptoms, diarrhea, conjunctivitis) were measured throughout the study. Immunophenotyping for B cells and T cells was performed on spleens collected from euthanized mice by flow cytometry at two timepoints (day 40 during treatment and on day 76 post-treatment). Levels of circulating immunoglobulins were measured by multiplex cytokine assay at both timepoints.
# (§2) On day 40 (during treatment) and day 76 (post-treatment) groups of mice were euthanized for immunophenotyping analysis utilizing a 22-color flow cytometry panel. […] Scoring between 0-2 was assigned for each of the parameters (appearance, activity, skin symptoms, diarrhea, conjunctivitis) and totaled for each mouse.
# BTK = BTK (Homo sapiens, UniProt Q06187); conditions: reversible, non-covalent; cited from earlier work
# ITK = molecular target: T1, ITK (Homo sapiens, UniProt Q08881); conditions: ITK expressed in T cells; cited from earlier work
# T1 sequence (Q08881 1-620): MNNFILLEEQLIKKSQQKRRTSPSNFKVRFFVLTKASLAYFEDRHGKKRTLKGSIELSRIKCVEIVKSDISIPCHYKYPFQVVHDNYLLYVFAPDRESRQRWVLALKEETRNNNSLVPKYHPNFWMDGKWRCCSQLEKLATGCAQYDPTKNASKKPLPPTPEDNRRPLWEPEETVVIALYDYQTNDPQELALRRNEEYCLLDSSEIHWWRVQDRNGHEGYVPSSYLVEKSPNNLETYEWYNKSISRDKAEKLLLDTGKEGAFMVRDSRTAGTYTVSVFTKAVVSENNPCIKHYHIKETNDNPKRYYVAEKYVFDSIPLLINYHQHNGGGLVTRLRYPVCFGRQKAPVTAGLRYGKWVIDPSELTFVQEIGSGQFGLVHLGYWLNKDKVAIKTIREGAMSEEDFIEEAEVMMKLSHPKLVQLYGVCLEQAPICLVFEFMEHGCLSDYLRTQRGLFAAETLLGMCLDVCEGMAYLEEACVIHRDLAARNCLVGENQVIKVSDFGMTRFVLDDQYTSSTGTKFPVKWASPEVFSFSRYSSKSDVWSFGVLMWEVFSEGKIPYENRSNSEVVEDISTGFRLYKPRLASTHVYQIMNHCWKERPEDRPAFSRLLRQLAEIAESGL
# [2] = mouse, in vivo
# Method: as §1, §2
# [3] = test system: circulating immunoglobulins; test: Circulating immunoglobulins by multiplex cytokine assay in cGVHD mice; format: in vivo, mouse (BALB/c recipients); conditions: during and post treatment, compared to vehicle
# Method: as §1
# B cells and T cells = test: Immunophenotyping of spleen B cells and T cells by flow cytometry in cGVHD mice; format: in vivo, mouse (BALB/c recipients); conditions: during treatment (day 40)
# Method: as §1, §2
# Sequence of BTK (Q06187 whole entry, species assumed): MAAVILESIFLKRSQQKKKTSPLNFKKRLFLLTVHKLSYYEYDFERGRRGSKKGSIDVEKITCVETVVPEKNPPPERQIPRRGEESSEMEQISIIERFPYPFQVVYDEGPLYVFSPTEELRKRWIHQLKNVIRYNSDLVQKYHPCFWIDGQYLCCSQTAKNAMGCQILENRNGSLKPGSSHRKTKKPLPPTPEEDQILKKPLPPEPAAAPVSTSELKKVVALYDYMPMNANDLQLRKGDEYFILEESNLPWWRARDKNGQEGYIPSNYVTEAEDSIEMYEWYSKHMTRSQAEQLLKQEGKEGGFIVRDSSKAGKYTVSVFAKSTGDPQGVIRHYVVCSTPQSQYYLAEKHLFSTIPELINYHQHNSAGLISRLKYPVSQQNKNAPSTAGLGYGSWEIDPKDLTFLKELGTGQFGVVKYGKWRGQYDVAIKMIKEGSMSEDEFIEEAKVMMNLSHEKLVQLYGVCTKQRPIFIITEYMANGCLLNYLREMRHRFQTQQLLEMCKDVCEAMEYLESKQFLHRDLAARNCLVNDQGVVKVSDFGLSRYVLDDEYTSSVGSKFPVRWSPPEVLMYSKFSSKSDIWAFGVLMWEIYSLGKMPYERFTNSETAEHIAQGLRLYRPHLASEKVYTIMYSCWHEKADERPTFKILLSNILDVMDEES
structure (smiles),measurement,setting,value
"NC(=O)[C@H]1CCN(c2ncnc(N)c2F)C[C@@H]1N1CCC[C@@H](Nc2cc(Cl)cc(C(F)(F)F)c2)C1=O [Vecabrutinib, (3R,3′R,4'S)-1′-(6-amino-5-fluoropyrimidin-4-yl)-3-((3-chloro-5-(trifluoromethyl)phenyl)amino)-2-oxo-[1,3′-bipiperidine]-4′-carboxamide]",Avg. Score Day 58,"[1]; average clinical GVHD score, 0-2 per parameter (appearance, activity, skin symptoms, diarrhea, conjunctivitis) totaled, Day 58, vecabrutinib 50 mg/kg once daily oral gavage, ibrutinib 30 mg/kg in drinking water, day 27 to 45",2.50
same,Avg. Score Day 66,"[1]; average clinical GVHD score, 0-2 per parameter totaled, Day 66, vecabrutinib 50 mg/kg once daily oral gavage, ibrutinib 30 mg/kg in drinking water, day 27 to 45",1.30
same,Avg. Score Day 71,"[1]; average clinical GVHD score, 0-2 per parameter totaled, Day 71, vecabrutinib 50 mg/kg once daily oral gavage, ibrutinib 30 mg/kg in drinking water, day 27 to 45",2.90
same,"Clinical symptoms (appearance, activity, skin irritation, redness, alopecia and diarrhea)","[1]; treated groups, vecabrutinib 50 mg/kg oral, ibrutinib 30 mg/kg drinking water",significantly reduced
same,Clinical score overall compared to ibrutinib,"[1]; vecabrutinib-treated group vs ibrutinib, small sample size",trend toward a more favorable clinical score overall
same,BTK inhibition,BTK,potent
same,Activity against ITK,ITK,demonstrates activity
same,Body weight post-treatment,[2],recovered body weight
same,Weight loss during treatment compared to vehicle,[2],slightly elevated
same,Circulating levels of IgA,[3],reduced
same,Activated and proliferating CD4+ and CD8+ T cells,B cells and T cells,reduced
same,B-cell activation,B cells and T cells,reduced
same,B-cell proliferation,B cells and T cells,reduced
same,CD4+ CXCR5+PD-1+ T follicular helper cells,B cells and T cells,reduced
same,CD4+CD25+ FoxP3+ Treg number,B cells and T cells,reduced
same,Cytotoxic granzyme-B+ CD8+ T cells,B cells and T cells,reduced
same,Expression of PD-1 on Tregs,B cells and T cells,reduced
same,Expression of antigen-presentation molecules CD80 and CD86 on B cells,B cells and T cells,unchanged
same,IL-4/5 secreted by B cells,B cells and T cells,less
same,IL-10 secreted by B cells,B cells and T cells,less
same,Number of B220+CD138+ plasma cells,B cells and T cells,reduced
same,Numbers of cytokine secreting CD4+ cells,B cells and T cells,globally reduced
same,Th1/Th2 or Th17/Treg ratios,B cells and T cells,no differences
same,Total B cell numbers,B cells and T cells,retained
same,Total CD3+ T cells,B cells and T cells,reduced
"C=CC(=O)N1CCC[C@@H](n2nc(-c3ccc(Oc4ccccc4)cc3)c3c(N)ncnc32)C1 [Ibrutinib, reference compound]",Body weight post-treatment,[2],recovered body weight
same,Weight loss during treatment compared to vehicle,[2],slightly elevated

# Reference: patent US20260158033A1, “VECABRUTINIB FOR THE TREATMENT OF GRAFT-VERSUS-HOST DISEASE” (Viracta Therapeutics, Inc., priority 2021, published 2026)
